Laboratory results taken from patent publication US11014964B2, “Peptide amide compound and preparation method and medical use thereof” (Sichuan Haisco Pharmaceutical Co., Ltd., priority 2017, dated 2021).

What was measured:
[1] = molecular target: T1, human κ-opioid receptor (Homo sapiens, UniProt P41145); assay: Agonist activity on human κ-opioid receptors (inhibition of forskolin-stimulated cAMP release, TR-FRET); type: cell-based; details: OPRK1 cells (DiscoveRx)
T1 construct: host or cells: OPRK1 cells (DiscoveRx)
T1 sequence (P41145 whole entry): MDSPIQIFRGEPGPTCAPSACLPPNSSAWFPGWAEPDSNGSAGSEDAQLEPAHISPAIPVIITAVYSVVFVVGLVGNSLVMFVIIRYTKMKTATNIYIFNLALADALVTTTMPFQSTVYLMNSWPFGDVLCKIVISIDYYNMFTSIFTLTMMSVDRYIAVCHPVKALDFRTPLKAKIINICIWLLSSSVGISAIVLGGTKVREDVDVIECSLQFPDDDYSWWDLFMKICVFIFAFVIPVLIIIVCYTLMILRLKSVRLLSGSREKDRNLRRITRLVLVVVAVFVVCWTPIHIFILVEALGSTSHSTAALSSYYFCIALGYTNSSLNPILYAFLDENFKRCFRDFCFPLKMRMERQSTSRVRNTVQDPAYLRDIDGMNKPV
Text: Test 1: Agonist Activity on Human κ-Opioid Receptors
Forskolin can stimulate the release of cAMP from a human κ-opioid receptor-overexpressing cell line, OPRK1 cells (DiscoveRx), and κ-opioid receptor agonists can inhibit the cAMP release stimulated by forskolin. By detecting the inhibitory effect of the test compound on the cAMP release stimulated by forskolin, the agonistic activity of the compound on the human κ-opioid receptor can be determined. First, a certain concentration of forskolin and different concentrations of the test compound were incubated with human κ-opioid receptor overexpressing cell lines. A cAMP immunoassay (LANCE®, PerkinElmer) based on time-resolved fluorescence resonance energy transfer (TR-FRET) was used to determine cAMP levels in the stimulated OPRK1 cells. The specific method is as follows:
OPRK1 cells (DiscoveRx) that highly express human κ-opioid receptors were cultured in McCoy's 5A (Gibco 16600-082) medium containing 10% FBS (Gibco 10099-141). On the day of the experiment, the cells in the exponential growth phase were washed and separated with PBS/5 mM EDTA, collected by centrifugation, resuspended with Stimulation Buffer and counted. The concentration of cells was adjusted to 3*10^5 cells/ml. DMSO was used to dissolve Forskolin and the test compound respectively, so that the mother liquor concentration each was 10 mM, and then diluted Forskolin to […] with Stimulation Buffer, and different concentrations of the test compound (the concentrations were 80, 16, 3.2, 0.64, 0.128, 0.0256, 0.00512, 0.001024, 0 μM) was added, 5 μl per well was added to a 384-well plate. 5 μl of cell suspension was added to each well and incubated at room temperature for 30 min. Subsequently, 5 μl of 4×Eu-cAMP tracer working solution (50-fold dilution of Eu-cAMP stock solution with cAMP Detection Buffer) and 5 μl of 4×Ulight-anti-cAMP working solution (150-fold dilution of ULight-anti-cAMP stock solution with cAMP Detection Buffer) were added to each well, and incubated at room temperature for 1 hour. 384-well plates were assayed for cAMP levels using a microplate reader (Perkin Elmer, Envision) TR-FRET method. The obtained data were processed and fitted to EC50 using the origin 7.5 software. The human κ-opioid receptor agonistic activity of the compound of the present invention was measured through the above experiments, and the measured EC50 values are shown in Table 1.
Stimulation Buffer preparation method: 14 mL 1*HBSS (invitrogen, cat. #14025-092), 75 μL 1 M HEPES (Invitrogen, cat. #15630-080), 30 μL 250 mM IBMX was dissolved in DMSO (Sigma, cat. #17018) and mixed with 200 μL 7.5% BSA Stabilizer. pH of the solution was adjusted to 7.4 with 0.1 N NaOH and make up to 15 mL with 1*HBSS.

[2] = test system: C57 mice; assay: Mouse hot plate experiment; type: in vivo; details: female C57 mice, subcutaneous, detection 15 minutes after administration, hot plate 56° C., cut-off 30 seconds
Description: Test 2: Mouse Hot Plate Experiment
18-22 g of female C57 mice were purchased from Chengdu Dashuo Experimental Animal Co., Ltd. The temperature of the hot plate instrument was set to 56° C., and after reaching 56° C., the temperature was stabilized for 30 minutes before experiment. The animals were placed in a hot plate test in order to observe the reaction of licking the hind feet, which was used as an indicator of pain response. The time from the entry of the animal to the hot plate to the heat-induced licking of the hind feet was recorded. Animals that meet the inclusion criteria (response time to lick the hind foot is less than 25s) are included in the group number. The animals were grouped by baseline threshold, with 10 in each group. Compounds of different concentrations were administered subcutaneously at 10 ml/kg, and a detection was carried out after 15 minutes of administration, with 30 seconds as the cut-off time, and the reaction time was recorded. The results were analyzed statistically, and the % MPE value was calculated according to the formula: % MPE=(Tn−T0)/(30−T0), (Tn is the time for the animal to lick the hind foot after administration, T0 is the time for the animal to lick the foot before administration) The experimental results are shown in Table 2.

[3] = Rat PK test; type: in vivo; details: male SD rats, iv, 1 mg/kg (calculated in free form)
[4] = Mouse PK test; type: in vivo; details: plasma, male ICR mice, iv, 1 mg/kg (calculated in free form)

SMILES: CC(C)C[C@@H](NC(=O)[C@@H](Cc1ccccc1)NC(=O)[C@H](N)Cc1ccccc1)C(=O)N[C@H](CCCCN)C(=O)N1CC2(C1)CC1(CNC(=O)C1)C2 [Compound 4, (2R)—N-[(1R)-5-amino-1-(9-oxo-2,8-diazadispiro[3.1.4^6.1^4]undecane-2-carbonyl)pentyl]-2-[[(2R)-2-[[(2R)-2-amino-3-phenyl-propanoyl]amino]-3-phenyl-propanoyl]amino]-4-methyl-pentanamide; di-trifluoroacetic acid]
- EC50 [1]: 0.0159 nM
- MPE(%) [2]: −19.62%

SMILES: CC(C)C[C@@H](NC(=O)[C@@H](Cc1ccccc1)NC(=O)[C@H](N)Cc1ccccc1)C(=O)N[C@H](CCCCN)C(=O)N1CCC2(CC1)CC(N)(C(=O)O)C2 [Compound 2, 2-amino-7-[(2R)-6-amino-2-[[(2R)-2-[[(2R)-2-[[(2R)-2-amino-3-phenyl-propanoyl]amino]-3-phenyl-propanoyl]amino]-4-methyl-pentanoyl]amino]hexanoyl]-7-azaspiro[3.5]nonane-2-carboxylic acid; tri-trifluoroacetic acid]
- Cl [3]: 5.97 ml/kgmin
- AUC(0-t) ([3]; rat, plasma): 2660 ng·h/mL
- half-life ([3]; rat, plasma): 4.22 h
- Vd ([3]; rat, plasma, read-out: Vdss): 1.47 L/kg
- EC50 [1]: 0.41 nM
- MPE(%) [2]: −17.20%

SMILES: CC(=O)N1CC2(CCN(C(=O)[C@@H](CCCCN)NC(=O)[C@@H](CC(C)C)NC(=O)[C@@H](Cc3ccccc3)NC(=O)[C@H](N)Cc3ccccc3)CC2)C1 [Compound 8, (2R)—N-[(1R)-1-(2-acetyl-2,7-diazaspiro[3.5]nonane-7-carbonyl)-5-amino-pentyl]-2-[[(2R)-2-[[(2R)-2-amino-3-phenyl-propanoyl]amino]-3-phenyl-propanoyl]amino]-4-methyl-pentanamide; di-trifluoroacetic acid]
- EC50 [1]: 0.0112 nM
- MPE(%) [2]: −18.61%
- AUC(0-t) [4]: 1220 ng·h/mL
- half-life [4]: 5.77 h

SMILES: CNC(=O)N1CC2(CCN(C(=O)[C@@H](CCCCN)NC(=O)[C@@H](CC(C)C)NC(=O)[C@@H](Cc3ccccc3)NC(=O)[C@H](N)Cc3ccccc3)CC2)C1 [Compound 15, 7-[(2R)-6-amino-2-[[(2R)-2-[[(2R)-2-[[(2R)-2-amino-3-phenyl-propanoyl]amino]-3-phenyl-propanoyl]amino]-4-methyl-pentanoyl]amino]hexanoyl]-N-methyl-2,7-diazaspiro[3.5]nonane-2-carboxamide; di-trifluoroacetic acid]
- EC50 [1]: 0.0117 nM
- MPE(%) [2]: −13.29%
